Legend:
[1] = test system: JAG1 OE tumor cells bone metastasis; test: Bone metastasis xenograft, JAG1 OE tumor cells, MRK-003 treatment; assay type: in vivo, mouse
Procedure: For bone metastsis studies, 10^5 tumor cells were injected into the left cardiac ventricle of anesthetized female athymic Ncr-nu/nu or BALB/c mice. Development of metastases was monitored by BLI. Bioluminescence images were acquired with a Xenogen IVIS 200 Imaging System. Analysis was performed with Living Image software by measuring photon flux in the hindlimbs of mice. Data were normalized to the signal on day 7. Bone metastasis-free survival curves represent the time point at which each mouse developed bone metastasis by threshold BLI signals in the hindlimbs. […]
Osteolysis was assessed by X-ray radiography. […] Osteolytic lesions were identified on radiographs as demarcated radiolucent lesions in the bone and quantified using the ImageJ software (National Institutes of Health).
Hindlimb bones were excised from mice at the end point of each experiment, immediately after the last BLI time point. […] For quantitative analysis of lesion area, a 5× objective was used to focus on the tumor region of interest and images were acquired using the AxioCamICc3 camera set to an exposure of 100 ms. Lesions that were larger than the field of view were quantified by acquiring multiple images to encompass the entire lesion. The “spline” function of the AxioVision software was used to outline the region of interest and subsequently quantify the lesion area. […]

[2] = test system: Notch target genes and IL-6; test: Species-specific qRT-PCR of the stromal compartment of bone metastases; assay type: in vivo; settings: mouse-specific qRT-PCR; FIG. 17A
Procedure: (§1) RNA from in vitro cultured cells or flow cytometry-separated cells was collected in RLT lysis buffer and extracted with RNeasy mini kit (Qiagen). RNA extraction from in vivo tissue samples was performed using Trizol (Invitrogen) according to the manufacturer's protocol. cDNA synthesis of RNA was performed using Superscript III First-Strand (Invitrogen). Quantitative RT-PCR was performed using Power Syber Green PCR Master Mix (Applied Biosystems) with the ABI Prism 7900HT thermocycler (Applied Biosystems) according to the manufacturer's protocol. A standard curve for each gene was generated by serial dilutions of a standard. Values were then normalized by the amount of GAPDH or β-actin in each sample. For in vivo samples, species-specific primers were employed for gene expression analysis in the tumor compartment (human) versus stroma compartment (mouse).

IL-6 = test: Murine IL-6 ELISA and qRT-PCR in osteoblast cocultures; assay type: cell-based, mouse; settings: JAG1 OE coculture with MC3T3-E1; FIGS. 13B, 13C, 13E
Procedure: Quantitative levels of murine IL-6 in the conditioned medium of cultured and cocultured cells were determined in triplicate by ELISA according to the manufacturer's protocol (Quantikine immunoassay kit, R&D systems).
as §1

[3] = test system: pre-osteoclast Raw 264.7 cells; test: Osteoclastogenesis coculture assay (TRAP staining); assay type: cell-based, mouse
Procedure: After seeding 5×10^4 control or JAG1 OE tumor cells/well into 12-well plates, murine pre-osteoclast Raw 264.7 (2×10^5 cells/well) or MOCP5 (5×10^5 cells/well) cells in media containing 30 ng/ml RANKL and DMSO or 1 μM MRK-003 were added the next day. Media were changed every 2 days. TRAP staining was performed on day 6 using a leukocyte acid phosphatase kit (Sigma). TRAP^+-multinucleated cells were scored as mature osteoclasts. The number of nuclei per osteoclast was quantified using TRAP-stained images. Mouse specific qRT-PCR primers were used to selectively quantify Raw264.7 osteoclast gene expression levels after 6 days of coculture (see Table 1 below).
For primary osteoclast coculture assays, bone marrow cells were flushed out from femora and tibiae of 4- to 6-week-old wild-type FVB mice and plated in basal culture medium overnight. The next day, nonadherent cells were added at 1×10^6/well to 12-well plates that were previously seeded with either control or JAG1 OE tumor cells supplemented with 50 ng/ml RANKL and 50 ng/ml M-CSF. Medium was changed every 3 days. TRAP staining and scoring were performed on days 10-12.

SCP2 bone metastasis = test: Bone metastasis xenograft, SCP2 cells injected intracardially, MRK-003 treatment; assay type: in vivo, mouse
Procedure: (§2) For bone metastsis studies, 10^5 tumor cells were injected into the left cardiac ventricle of anesthetized female athymic Ncr-nu/nu or BALB/c mice. Development of metastases was monitored by BLI. Bioluminescence images were acquired with a Xenogen IVIS 200 Imaging System. Analysis was performed with Living Image software by measuring photon flux in the hindlimbs of mice. Data were normalized to the signal on day 7. Bone metastasis-free survival curves represent the time point at which each mouse developed bone metastasis by threshold BLI signals in the hindlimbs. For the orthotopic xenograft model, mammary fat pad injections and primary tumor size measurements were performed following the procedure described previously (Minn et al., 2005, which is incorporated herein by reference as if fully set forth).
Osteolysis was assessed by X-ray radiography. Anesthetized mice were placed on single wrapped films (X-OMAT AR, Eastman Kodak) and exposed to X-ray radiography at 35 kV for 15 s using a MX-20 Faxitron instrument. Films were developed using a Konica SRX-101A processor. Osteolytic lesions were identified on radiographs as demarcated radiolucent lesions in the bone and quantified using the ImageJ software (National Institutes of Health).
Hindlimb bones were excised from mice at the end point of each experiment, immediately after the last BLI time point. Following this, the tumor-bearing hind limb bones were fixed in 10% neutral-buffered formalin, decalcified in 10% EDTA for 2 weeks, and embedded in paraffin for hematoxylin and eosin (H&E), tartrate-resistant acid phosphatase (TRAP) (Kos et al., 2003, which is incorporated herein by reference as if fully set forth), or immunohistochemical staining. Histomorphometric analysis was performed on H&E stained bone metastasis samples using the Zeiss Axiovert 200 microscope and the AxioVision software version 4.6.3 SP1. For quantitative analysis of lesion area, a 5× objective was used to focus on the tumor region of interest and images were acquired using the AxioCamICc3 camera set to an exposure of 100 ms. Lesions that were larger than the field of view were quantified by acquiring multiple images to encompass the entire lesion. The “spline” function of the AxioVision software was used to outline the region of interest and subsequently quantify the lesion area. Osteoclast number was assessed as multinucleated TRAP^+ cells along the tumor-bone interface and reported as number/mm of interface (Yin et al., 2003, which is incorporated herein by reference as if fully set forth). Immunohistochemical analysis was performed with heat-induced antigen retrieval. Primary antibodies used were anti-JAGGED1 (Santa Cruz, sc-6011) and anti-Ki67 (Dako, Denmark). Biotinylated secondary antibody was used with Vectastain ABC Kit (Vector Laboratories) and DAB detection kit (Zymed) to reveal the positively stained cells with nuclei counterstained with hematoxylin.
(§3) MRK-003 is a potent and specific gamma-secretase inhibitor whose biochemical, cellular and pharmacological properties have been extensively studied and reported. MRK-003 is a cyclic sulfamide with sub-nanomolar potency inhibiting gamma-secretase-mediated cleavage of Notch to its active form (NICD) (Lewis et al., 2007, which is incorporated herein by reference as if fully set forth). […] For xenograft experiments, mice were administered the vehicle (0.5% methylcellulose) or MRK-003 by oral gavage twice a week at a 100 mg/kg dosage. The dosing schedule was 2-days on, 5-days off. […]

[4] = test system: primary mammary tumors of MDA231 sublines; test: Orthotopic primary mammary tumor xenograft; settings: mouse, in vivo
Procedure: as §2, §3

Compound: O=S1(=O)N[C@@]2(CN1CC(F)(F)F)[C@@H]1CC[C@H]2Cc2ccc(/C=C/CN3CCC(C(F)(F)F)CC3)cc2C1 [MRK-003]
- osteolysis ([1]; JAG1 OE, FIG. 17D): reduced
- reduction of bone metastasis in the JAG1 OE group ([1]; tumor signal decreased to levels of control group, FIGS. 17B-17C): more than 6 fold
- expression levels of Notch target genes and IL-6 in the stromal compartment of bone metastases [2]: significantly reduced
- IL-6 transcription and secretion from osteoblasts (IL-6): dependent on the Notch pathway
- TRAP+ osteoclasts in JAG1 OE cocultures ([3]; 15-fold increase by JAG1 OE relative to controls, 1 μM MRK-003, FIG. 15A): essentially abolished
- mRNA expression of osteoclast differentiation markers in Raw 264.7 cells ([3]; JAG1 OE cocultures): suppressed
- osteoclast size and number of nuclei ([3]; cocultures with Raw 264.7, FIG. 15C): smaller osteoclasts with fewer nuclei
- Acp5 (mouse gene encoding TRAP) mRNA levels, delayed initiation of treatment (Late) ([3]; treatment 2 days after seeding, FIG. 15B): failed to fully rescue
- reduction in bone metastasis burden by BLI (SCP2 bone metastasis; 100 mg/kg oral gavage twice a week, FIG. 16A): 5 fold
- delay in the onset of bone metastasis (SCP2 bone metastasis; FIG. 16B): ~10 days
- number of bone lesions (SCP2 bone metastasis; FIG. 16C): reduced
- reduction in X-ray lesion area (SCP2 bone metastasis; FIG. 16D): 2 fold
- decrease in the number of TRAP+ osteoclasts (SCP2 bone metastasis; bone-tumor interface, FIG. 16E): 3 fold
- growth rate of primary mammary tumors [4]: not altered
- primary tumor xenografts of MDA231 sublines, control vs treated [4]: no difference

Source: patent US20150329918A1, “JAGGED1 AS A MARKER AND THERAPEUTIC TARGET FOR BREAST CANCER BONE METASTASIS” (The Trustees of Princeton University, priority 2011, published 2015)
